We go through twelve molecules from patent US20260317324A1, “BIFUNCTIONAL COMPOUNDS FOR DEGRADING BRAF VIA UBIQUITIN PROTEOSOME PATHWAY” (Nurix Therapeutics, Inc., priority 2023, published 2026).

The target in this test is T1, BRAF V600E (Homo sapiens, UniProt P15056, V600E).
T1 construct: endogenous C-terminal HiBiT fusion tag on BRAF V600E allele; endogenous in cells; host or cells: A375 clone 1F10 (CRISPR-Cas9 knock-in of the HiBiT tag; parental A375 from ATCC)
As to the kind of experiment: BRAF HiBiT degradation assay, C-terminal HiBiT-tagged BRAF V600E A375 cells (clone 1F10), Nano-Glo HiBiT Lytic assay. The following applies: for Dmax: A-375. It counts as cell-based. The text has this: An A375 cell line expressing a homozygous V600E mutation was purchased from ATCC (Manassas, VA, USA). An A375 clone 1F10 cell line with an endogenous C-terminal HiBiT fusion tag on BRAF V600E allele was generated internally using CRISPR-Cas9 technology and cultured in DMEM, high glucose supplemented with 10% FBS and 1× GlutaMAX. A HCT-116 BRAF−/− cell line overexpressing the C-terminal HiBiT-tagged G466V, G469A, and D594G mutants were generated by lentiviral transduction, externally at Biosettia Inc (San Diego, CA, USA). The stably transfected cells were cultured in RPMI media supplemented with 10% FBS, 1× GlutaMAX, and 0.25 μg/ml puromycin. DMEM medium, RPMI 1640 medium, GlutaMAX, fetal bovine serum (FBS), and puromycin were purchased from Gibco (Grand Island, NY, USA). HCT-116 BRAF−/− cells were purchased from Horizon Discovery (Waterbeach, UK).
The C-terminal HiBiT tagged BRAF A375 cells (monoclonal cell line, cell clone 1F10) were seeded at a density of 10,000 cells/well in 30 μL media (DMEM, high glucose supplemented with 10% FBS and 1× GlutaMAX) in white opaque 384-well plates (Corning #3570) from column 1 to column 23. The wildtype A375 cells were seeded in column 24 at the same cell density in 30 μL media. Cells were incubated at 37° C. with 5% CO2 for 24 h.
Intermediate compound dilution series (5-point, ranging from 5 mM to 0.5 μM, 10-fold dilutions in DMSO) were prepared in a source plate (Beckman Coulter cat. no. 001-16128). Final compound dilution series (11-point, ranging from 1 μM to 0.01 nM, half-log dilutions in DMSO) were stamped into the assay plate (Corning #3570, column 1-11 and 12-22) using the Echo Acoustic Liquid Handler (Beckman Coulter). Each compound was plated in duplicate, and the total volume of compound DMSO solution was 60 nL/well (0.2% final DMSO concentration). DMSO was included in wells A23-L23 and A24-L24. The DMSO-treated HiBiT-tagged samples served as Negative Control (NC) and the DMSO-treated wildtype samples served as Background Control (BC) for the HiBiT assay.
HiBiT signal was measured by a Nano-Glo HiBiT Lytic assay (Promega cat. no. N3050). HiBiT lytic detection reagent (Nano-Glo HiBiT Lytic Buffer with 1:50 Nano-Glo HiBiT Lytic Substrate and 1:100 LgBiT Protein, 40 μL) was added using Bravo. The mixture was incubated at room temperature, in the dark, and with gentle shaking for 10 min. Luminesce units (LU) were read on an EnVision plate reader 2105 (Perkin Elmer).
Percent protein remaining and viability remaining per sample were calculated as follows: […]
% Protein remaining values were plotted as a function of compound concentration. XC50 (DC50) values were determined by fitting curves using the following equation:
For the HiBiT degradation assay, the key parameters reported include: • The dose of compound that produces 50% degradation (DC50 at 50%): • DC50 at 50%: the Fitted X value (Conc.) at Y=50 (response) • Observed Dmax (Obs. Dmax) is the percentage protein degraded at maximal compound effect relative to DMSO-treated control: […]
In general terms: With HiBiT, luminescence reflects the tagged protein that the partner subunit can reach.

Setting [1] is: A375 (BRAF V600E), DC50 at 50%: fitted conc. at Y=50.
[2] abbreviates: A375 (BRAF V600E), percentage protein degraded at maximal compound effect relative to DMSO.

T1 sequence (P15056 whole entry V600E, the tested form may be a part): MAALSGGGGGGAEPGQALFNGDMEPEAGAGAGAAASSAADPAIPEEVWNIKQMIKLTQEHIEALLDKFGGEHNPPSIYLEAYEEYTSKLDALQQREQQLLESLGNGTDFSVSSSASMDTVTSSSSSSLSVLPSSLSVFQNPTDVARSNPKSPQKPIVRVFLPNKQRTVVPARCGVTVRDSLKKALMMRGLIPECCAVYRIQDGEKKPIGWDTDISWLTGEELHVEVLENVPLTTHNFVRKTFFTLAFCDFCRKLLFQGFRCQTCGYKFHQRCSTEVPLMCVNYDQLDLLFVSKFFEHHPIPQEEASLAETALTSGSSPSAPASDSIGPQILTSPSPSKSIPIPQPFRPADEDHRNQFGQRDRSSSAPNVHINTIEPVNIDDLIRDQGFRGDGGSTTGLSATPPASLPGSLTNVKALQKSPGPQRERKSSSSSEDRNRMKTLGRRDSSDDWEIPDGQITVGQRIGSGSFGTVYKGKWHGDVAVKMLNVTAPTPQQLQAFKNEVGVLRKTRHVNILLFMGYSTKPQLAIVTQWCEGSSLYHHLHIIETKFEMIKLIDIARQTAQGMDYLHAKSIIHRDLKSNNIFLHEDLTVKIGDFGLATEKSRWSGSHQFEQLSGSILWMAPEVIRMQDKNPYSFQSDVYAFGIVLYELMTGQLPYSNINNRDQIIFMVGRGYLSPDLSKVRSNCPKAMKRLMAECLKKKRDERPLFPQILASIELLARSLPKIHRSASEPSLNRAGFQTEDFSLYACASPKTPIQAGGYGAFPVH

What is called DC50 is the concentration giving 50% degradation. Read a high DC50 as a less potent degrader. Broadly, the Dmax is the largest share of the target that was removed. The molecule `CCCS(=O)(=O)Nc1cccc(-c2nc(C3CCN(C4CN(C(=O)CC5(O)CCN(c6ccc(NC7CCC(=O)NC7=O)cc6F)CC5)C4)CC3)sc2-c2ccnc(N)n2)c1F` (racemic) [Compound 214, Rac-N-{3-[5-(2-aminopyrimidin-4-yl)-2-[1-(1-{2-[1-(4-{[(3R)-2,6-dioxopiperidin-3-yl]amino}-2-fluorophenyl)-4-hydroxypiperidin-4-yl]acetyl}azetidin-3-yl)piperidin-4-yl]-1,3-thiazol-4-yl]-2-fluorophenyl}propane-1-sulfonamide] had a DC50 under setting [1] of 10 to 50 nM. In addition, the greatest degradation seen (Dmax) under setting [2] was 30 to 70%.

With `CCCS(=O)(=O)Nc1cccc(-c2nc(C(C)(C)C)sc2-c2ccnc(Nc3ccc(C4CCN(C[C@H]5CC[C@H](Oc6ccc(C7CCC(=O)NC7=O)cn6)CC5)CC4)cc3)n2)c1F` (mixture of isomers) [Compound 168, N-{3-[2-tert-butyl-5-(2-{[4-(1-{[(1r,4r)-4-({5-[(3RS)-2,6-dioxopiperidin-3-yl]pyridin-2-yl}oxy)cyclohexyl]methyl}piperidin-4-yl)phenyl]amino}pyrimidin-4-yl)-1,3-thiazol-4-yl]-2-fluorophenyl}propane-1-sulfonamide], the DC50 under setting [1] lay within 10 to 50 nM. The molecule further registered a Dmax under setting [2] above 70%.

Under setting [1], `CCCS(=O)(=O)Nc1cccc(-c2nc(C(C)(C)C)sc2-c2ccnc(Nc3ccc(C4CCN(C(=O)C5CCN(c6ccc(C7CCC(=O)NC7=O)cc6)CC5)CC4)cc3)n2)c1F` (racemic) [Compound 37, Rac-N-(3-{2-tert-butyl-5-[2-({4-[1-(1-{4-[(3R)-2,6-dioxopiperidin-3-yl]phenyl}piperidine-4-carbonyl)piperidin-4-yl]phenyl}amino)pyrimidin-4-yl]-1,3-thiazol-4-yl}-2-fluorophenyl)propane-1-sulfonamide] came in with a DC50 of 10 to 50 nM. Under setting [2], this molecule had a Dmax of 30 to 70%.

As for `CCCS(=O)(=O)Nc1cccc(-c2nc(C(C)(C)C)sc2-c2ccnc(NC3CC4(C3)CN(CC3CCN(CC5CCN(c6ccc(C7CCC(=O)NC7=O)cc6)CC5)CC3)C4)n2)c1F` (racemic) [Compound 142, Rac-N-{3-[2-tert-butyl-5-(2-{[2-({1-[(1-{4-[(3R)-2,6-dioxopiperidin-3-yl]phenyl}piperidin-4-yl)methyl]piperidin-4-yl}methyl)-2-azaspiro[3.3]heptan-6-yl]amino}pyrimidin-4-yl)-1,3-thiazol-4-yl]-2-fluorophenyl}propane-1-sulfonamide], the 50% degradation concentration (DC50) under setting [1] was 50 to 500 nM. In addition, the Dmax under setting [2] is 30 to 70%.

As for `CCCS(=O)(=O)Nc1cccc(-c2nc(C(C)(C)C)sc2-c2ccnc(NC3CC4(CCN(CC5CCN(c6ccc([C@H]7CCC(=O)NC7=O)cc6)CC5)CC4)C3)n2)c1F` [Compound 133, N-(3-{2-tert-butyl-5-[2-({7-[(1-{4-[(3R)-2,6-dioxopiperidin-3-yl]phenyl}piperidin-4-yl)methyl]-7-azaspiro[3.5]nonan-2-yl}amino)pyrimidin-4-yl]-1,3-thiazol-4-yl}-2-fluorophenyl)propane-1-sulfonamide], the half-maximal degradation concentration (DC50) under setting [1] was 10 to 50 nM. For the same molecule, under setting [2], the Dmax was in the range of 30 to 70%.

On to `CCCS(=O)(=O)Nc1cccc(-c2nc(C(C)(C)C)sc2-c2ccnc(Nc3ccc(C4CCN(C(=O)C5CCN(c6ccc(C7CCC(=O)NC7=O)cn6)CC5)CC4)cc3)n2)c1F` (racemic) [Compound 156, Rac-N-(3-{2-tert-butyl-5-[2-({4-[1-(1-{5-[(3R)-2,6-dioxopiperidin-3-yl]pyridin-2-yl}piperidine-4-carbonyl)piperidin-4-yl]phenyl}amino)pyrimidin-4-yl]-1,3-thiazol-4-yl}-2-fluorophenyl)propane-1-sulfonamide], for which the DC50 under setting [1] is 10 to 50 nM. The greatest degradation seen (Dmax) under setting [2] was above 70%.

On to `CCCS(=O)(=O)Nc1cccc(-c2cn(C3CCN(C(=O)C4CCN(C(=O)C5CCN(c6ccc(C7CCC(=O)NC7=O)cc6)CC5)CC4)CC3)nc2-c2ccncc2)c1F` (racemic) [Compound 9, Rac-N-[3-(1-{1-[1-(1-{4-[(3R)-2,6-dioxopiperidin-3-yl]phenyl}piperidine-4-carbonyl)piperidine-4-carbonyl]piperidin-4-yl}-3-(pyridin-4-yl)-1H-pyrazol-4-yl)-2-fluorophenyl]propane-1-sulfonamide], for which the DC50 under setting [1] is 50 to 500 nM. The Dmax under setting [2] is above 70%.

The molecule `CCCS(=O)(=O)Nc1cccc(-c2nc(C3CCC4(CC3)CCN(C(=O)CN3CCN(CCCc5cccc6c5C(=O)N(C5CCC(=O)NC5=O)C6=O)CC3)CC4)sc2-c2ccnc(N)n2)c1F` (racemic) [Compound 229, Rac-N-{3-[5-(2-aminopyrimidin-4-yl)-2-(3-{2-[4-(3-{2-[(3R)-2,6-dioxopiperidin-3-yl]-1,3-dioxo-2,3-dihydro-1H-isoindol-4-yl}propyl)piperazin-1-yl]acetyl}-3-azaspiro[5.5]undecan-9-yl)-1,3-thiazol-4-yl]-2-fluorophenyl}propane-1-sulfonamide] registered a 50% degradation concentration (DC50) under setting [1] above 500 nM. The Dmax under setting [2] lay in the range of 30 to 70%.

For the setting “A375 (BRAF V600E, Class 1), DC50 at 50% degradation”, `O=C1CCC(c2ccc(N3CCC(CN4CCN(c5ccc(-n6cc(-c7cc(F)cc(NS(=O)(=O)N8CCCC8)c7F)c(-c7ccncc7)n6)c(F)c5)CC4)CC3)nc2)C(=O)N1` (racemic) [Compound 341, Rac-N-{3-[1-(4-{4-[(1-{5-[(3R)-2,6-dioxopiperidin-3-yl]pyridin-2-yl}piperidin-4-yl)methyl]piperazin-1-yl}-2-fluorophenyl)-3-(pyridin-4-yl)-1H-pyrazol-4-yl]-2,5-difluorophenyl}pyrrolidine-1-sulfonamide] returned a DC50 below 10 nM. Further, the maximal degradation (Dmax) (A375 (BRAF V600E, Class 1), observed Dmax, % protein degraded relative to DMSO control) was above 70%.

With `CCCS(=O)(=O)Nc1cccc(-c2nc(C(C)(C)C)sc2-c2ccnc(Nc3ccc4c(c3)CCN(C(=O)[C@@H]3CCN(c5ccc(C6CCC(=O)NC6=O)cn5)C3)C4)n2)c1F` (mixture of isomers) [Compound 121, N-(3-{2-tert-butyl-5-[2-({2-[(3R)-1-{5-[(3RS)-2,6-dioxopiperidin-3-yl]pyridin-2-yl}pyrrolidine-3-carbonyl]-1,2,3,4-tetrahydroisoquinolin-6-yl}amino)pyrimidin-4-yl]-1,3-thiazol-4-yl}-2-fluorophenyl)propane-1-sulfonamide], the half-maximal degradation concentration (DC50) under setting [1] fell in the range of 50 to 500 nM. For the same molecule, under setting [2], the Dmax is 30 to 70%.

The molecule `CCCS(=O)(=O)Nc1cccc(-c2nc(C3(C)CCN(C(=O)C4CCN(CC5CCN(c6ccc(C7CCC(=O)NC7=O)cn6)CC5)CC4)CC3)sc2-c2ccnc(N)n2)c1F` (racemic) [Compound 218, Rac-N-{3-[5-(2-aminopyrimidin-4-yl)-2-(1-{1-[(1-{5-[(3R)-2,6-dioxopiperidin-3-yl]pyridin-2-yl}piperidin-4-yl)methyl]piperidine-4-carbonyl}-4-methylpiperidin-4-yl)-1,3-thiazol-4-yl]-2-fluorophenyl}propane-1-sulfonamide] returned a 50% degradation concentration (DC50) under setting [1] of 50 to 500 nM. This molecule also registered a Dmax under setting [2] above 70%.

In turn, `CCCS(=O)(=O)Nc1cccc(-c2nc(C3CCC4(CC3)CN(C(=O)CN3CCN(c5ccc6c(c5)C(=O)N(C5CCC(=O)NC5=O)C6=O)CC3)C4)sc2-c2ccnc(N)n2)c1F` (racemic) [Compound 230, Rac-N-{3-[5-(2-aminopyrimidin-4-yl)-2-{2-[2-(4-{2-[(3R)-2,6-dioxopiperidin-3-yl]-1,3-dioxo-2,3-dihydro-1H-isoindol-5-yl}piperazin-1-yl)acetyl]-2-azaspiro[3.5]nonan-7-yl}-1,3-thiazol-4-yl]-2-fluorophenyl}propane-1-sulfonamide] returned a DC50 under setting [1] below 10 nM. The molecule also came in with a Dmax under setting [2] of 30 to 70%.
